# Assay results taken from paper PMC5218480 (PLoS ONE, 2017).
# Test system: MV-4-11 cells
# Assay: Gene expression microarray analysis (Affymetrix PrimeView) and GSEA
# Format: cell-based, human
# Design: RFU PODN (11730768_x_at) / Fold change /veh PODN (11730768_x_at) / RFU LINC00158 (11744669_a_at) / Fold change /veh LINC00158 (11744669_a_at) / RFU DUSP10 (11751237_a_at) / Fold change /veh DUSP10 (11751237_a_at) / RFU ID3 (11757404_x_at) / Fold change /veh ID3 (11757404_x_at) / RFU PLEKHG5 (11737974_s_at) / Fold change /veh PLEKHG5 (11737974_s_at) / RFU LRRC4B (11730491_at) / Fold change /veh LRRC4B (11730491_at) / RFU GIMAP4 (11747438_a_at) / Fold change /veh GIMAP4 (11747438_a_at) / RFU KRT8 (11758183_x_at) / Fold change /veh KRT8 (11758183_x_at) / RFU CNN1 (11734310_a_at) / Fold change /veh CNN1 (11734310_a_at) / RFU VPS37D (11726825_at) / Fold change /veh VPS37D (11726825_at) / RFU C10orf10 (11716522_x_at) / Fold change /veh C10orf10 (11716522_x_at) / RFU KIR2DL2 /// KIR2DL4 /// KIR2DL5A /// KIR2DL5B /// KIR2DS1 /// KIR2DS2 /// KIR2DS3 /// KIR2DS4 /// KIR3DL3 /// KIR3DL3 /// KIR3DS1 (11738374_at) / Fold change /veh KIR2DL2 /// KIR2DL4 /// KIR2DL5A /// KIR2DL5B /// KIR2DS1 /// KIR2DS2 /// KIR2DS3 /// KIR2DS4 /// KIR3DL3 /// KIR3DL3 /// KIR3DS1 (11738374_at) / RFU C1QL1 (11718748_at) / Fold change /veh C1QL1 (11718748_at) / RFU TMPRSS4 (11747572_a_at) / Fold change /veh TMPRSS4 (11747572_a_at) / RFU HAMP (11756126_x_at) / Fold change /veh HAMP (11756126_x_at) / RFU RNFT2 (11725882_a_at) / Fold change /veh RNFT2 (11725882_a_at) / RFU NR4A2 (11747474_a_at) / Fold change /veh NR4A2 (11747474_a_at) / RFU ABCC12 (11746883_a_at) / Fold change /veh ABCC12 (11746883_a_at) / RFU TMEM136 (11760407_x_at) / Fold change /veh TMEM136 (11760407_x_at) / RFU CLDN22 /// WWC2 (11732394_at) / Fold change /veh CLDN22 /// WWC2 (11732394_at) / RFU HLA-DPB1 (11760878_x_at) / Fold change /veh HLA-DPB1 (11760878_x_at) / RFU SPINT1 (11716480_a_at) / Fold change /veh SPINT1 (11716480_a_at) / RFU GAP43 (11754022_s_at) / Fold change /veh GAP43 (11754022_s_at) / RFU A4GNT (11735810_at) / Fold change /veh A4GNT (11735810_at) / RFU PRB3 (11715151_x_at) / Fold change /veh PRB3 (11715151_x_at) / RFU TUBB4B (11761932_at) / Fold change /veh TUBB4B (11761932_at) / RFU CAPN14 (11732068_a_at) / Fold change /veh CAPN14 (11732068_a_at) / RFU TMCC2 (11721928_a_at) / Fold change /veh TMCC2 (11721928_a_at) / RFU IRGQ (11745062_a_at) / Fold change /veh IRGQ (11745062_a_at) / RFU FAM174B (11720279_a_at) / Fold change /veh FAM174B (11720279_a_at) / RFU TMPRSS4 (11748680_a_at) / Fold change /veh TMPRSS4 (11748680_a_at) / RFU FAM212B (11763350_a_at) / Fold change /veh FAM212B (11763350_a_at) / RFU PLEKHG5 (11743358_a_at) / Fold change /veh PLEKHG5 (11743358_a_at) / RFU ZSCAN30 (11745921_a_at) / Fold change /veh ZSCAN30 (11745921_a_at) / RFU CMKLR1 (11741424_a_at) / Fold change /veh CMKLR1 (11741424_a_at) / RFU LOC101060620 /// MAPK8IP1 (11723275_at) / Fold change /veh LOC101060620 /// MAPK8IP1 (11723275_at) / RFU SPTSSB (11747773_x_at) / Fold change /veh SPTSSB (11747773_x_at) / RFU PRSS12 (11739890_at) / Fold change /veh PRSS12 (11739890_at) / RFU BIN1 (11741810_x_at) / Fold change /veh BIN1 (11741810_x_at) / RFU WNT11 (11732464_a_at) / Fold change /veh WNT11 (11732464_a_at) / RFU C10orf10 (11716521_a_at) / Fold change /veh C10orf10 (11716521_a_at) / RFU C5orf56 (11738089_at) / Fold change /veh C5orf56 (11738089_at) / RFU CYB561 (11721691_x_at) / Fold change /veh CYB561 (11721691_x_at) / RFU ANKRD19P (11752326_a_at) / Fold change /veh ANKRD19P (11752326_a_at) / RFU OR2T12 /// OR2T33 /// OR2T8 (11738714_s_at) / Fold change /veh OR2T12 /// OR2T33 /// OR2T8 (11738714_s_at) / RFU VCAN (11748164_a_at) / Fold change /veh VCAN (11748164_a_at) / RFU JSRP1 (11732532_at) / Fold change /veh JSRP1 (11732532_at) / RFU KRTAP10-11 (11738290_x_at) / Fold change /veh KRTAP10-11 (11738290_x_at) / RFU MYO3A (11730013_a_at) / Fold change /veh MYO3A (11730013_a_at) / RFU EBF3 (11725865_a_at) / Fold change /veh EBF3 (11725865_a_at) / RFU CAMK2N1 (11719241_x_at) / Fold change /veh CAMK2N1 (11719241_x_at) / RFU C5orf56 (11738088_a_at) / Fold change /veh C5orf56 (11738088_a_at) / RFU OLFML3 (11715873_a_at) / Fold change /veh OLFML3 (11715873_a_at) / RFU LOC100653217 /// NTM (11731650_a_at) / Fold change /veh LOC100653217 /// NTM (11731650_a_at) / RFU MAPK11 (11762145_a_at) / Fold change /veh MAPK11 (11762145_a_at) / RFU FIZ1 (11724087_x_at) / Fold change /veh FIZ1 (11724087_x_at) / RFU OASL (11726364_x_at) / Fold change /veh OASL (11726364_x_at) / RFU SOX15 (11748057_x_at) / Fold change /veh SOX15 (11748057_x_at) / RFU CD79A (11719716_a_at) / Fold change /veh CD79A (11719716_a_at) / RFU HIST1H1D (11736915_at) / Fold change /veh HIST1H1D (11736915_at) / RFU CASKIN2 (11723855_a_at) / Fold change /veh CASKIN2 (11723855_a_at) / RFU LOC730098 (11760151_x_at) / Fold change /veh LOC730098 (11760151_x_at) / RFU OR4N2 (11742367_at) / Fold change /veh OR4N2 (11742367_at) / RFU PRRT2 (11749266_a_at) / Fold change /veh PRRT2 (11749266_a_at) / RFU SNX32 (11753110_a_at) / Fold change /veh SNX32 (11753110_a_at) / RFU CDHR5 (11726645_a_at) / Fold change /veh CDHR5 (11726645_a_at) / RFU RCAN1 (11760418_a_at) / Fold change /veh RCAN1 (11760418_a_at) / RFU FAM167A (11723789_a_at) / Fold change /veh FAM167A (11723789_a_at) / RFU FAM26E (11764081_at) / Fold change /veh FAM26E (11764081_at) / RFU ISYNA1 (11749810_s_at) / Fold change /veh ISYNA1 (11749810_s_at) / RFU ACY1 (11761880_at) / Fold change /veh ACY1 (11761880_at) / RFU 11764098_at / Fold change /veh 11764098_at / RFU SAMD14 (11745864_x_at) / Fold change /veh SAMD14 (11745864_x_at) / RFU NPB (11741838_a_at) / Fold change /veh NPB (11741838_a_at) / RFU TMPRSS6 (11731388_a_at) / Fold change /veh TMPRSS6 (11731388_a_at) / RFU KRTAP10-2 (11738614_at) / Fold change /veh KRTAP10-2 (11738614_at) / RFU ARHGAP8 /// PRR5-ARHGAP8 (11727945_x_at) / Fold change /veh ARHGAP8 /// PRR5-ARHGAP8 (11727945_x_at) / RFU KRTAP5-7 /// NADSYN1 (11734609_at) / Fold change /veh KRTAP5-7 /// NADSYN1 (11734609_at) / RFU RASL12 (11751679_a_at) / Fold change /veh RASL12 (11751679_a_at) / RFU CDKN2B (11736163_a_at) / Fold change /veh CDKN2B (11736163_a_at) / RFU PRF1 (11729649_at) / Fold change /veh PRF1 (11729649_at) / RFU, ZNF638 /// ZNF638-IT1 / Fold change vs veh, ZNF638 /// ZNF638-IT1 / RFU, PANK3 / Fold change vs veh, PANK3 / RFU, SH3YL1 / Fold change vs veh, SH3YL1 / RFU, ZEB2 / Fold change vs veh, ZEB2 / RFU, NRIP1 / Fold change vs veh, NRIP1 / RFU, PTTG1IP / Fold change vs veh, PTTG1IP / RFU, CAPN2 / Fold change vs veh, CAPN2 / RFU, MED14 / Fold change vs veh, MED14 / RFU, SNORA58 / Fold change vs veh, SNORA58 / RFU, C1orf63 / Fold change vs veh, C1orf63 / RFU, LRRFIP1 / Fold change vs veh, LRRFIP1 / RFU, NDUFAF7 / Fold change vs veh, NDUFAF7 / RFU, SLC12A2 / Fold change vs veh, SLC12A2 / RFU, IBTK / Fold change vs veh, IBTK / RFU, ESF1 / Fold change vs veh, ESF1 / Fold change vs veh, TMEM50B / RFU, TAOK1 / Fold change vs veh, TAOK1 / RFU, ACBD3 / Fold change vs veh, ACBD3 / RFU, TMA16 / Fold change vs veh, TMA16 / RFU, RWDD3 / Fold change vs veh, RWDD3 / RFU, BCAT1 / Fold change vs veh, BCAT1 / RFU, EDEM3 / Fold change vs veh, EDEM3 / RFU, TMEM33 / Fold change vs veh, TMEM33 / RFU, WDR75 / Fold change vs veh, WDR75 / RFU, AHCTF1 / Fold change vs veh, AHCTF1 / RFU, TFRC / Fold change vs veh, TFRC / RFU, ZDHHC17 / Fold change vs veh, ZDHHC17 / RFU, NOM1 / Fold change vs veh, NOM1 / RFU, ARL8B / Fold change vs veh, ARL8B / RFU, ZBTB11 / Fold change vs veh, ZBTB11 / RFU, TAMM41 / Fold change vs veh, TAMM41 / RFU, KIAA1704 /// LOC100996395 / Fold change vs veh, KIAA1704 /// LOC100996395 / RFU, ING1 / Fold change vs veh, ING1 / RFU, TRMT61B / Fold change vs veh, TRMT61B / RFU, FUBP3 / Fold change vs veh, FUBP3 / RFU, TP53 / Fold change vs veh, TP53 / RFU, TNKS2 / Fold change vs veh, TNKS2 / RFU, ZFP14 / Fold change vs veh, ZFP14 / RFU, ACTR2 / Fold change vs veh, ACTR2 / RFU, PPP3R1 / Fold change vs veh, PPP3R1 / RFU, PIK3R1 / Fold change vs veh, PIK3R1 / RFU, HNRNPA1 / Fold change vs veh, HNRNPA1 / RFU, RNF170 / Fold change vs veh, RNF170 / RFU, ZNF28 / Fold change vs veh, ZNF28 / RFU, RNGTT / Fold change vs veh, RNGTT / RFU, OGT / Fold change vs veh, OGT / RFU, BRD1 / Fold change vs veh, BRD1 / RFU, MARS / Fold change vs veh, MARS / RFU, ZNF655 / Fold change vs veh, ZNF655 / RFU, FAHD1 / Fold change vs veh, FAHD1 / RFU, BDP1 / Fold change vs veh, BDP1 / RFU, LRRCC1 / Fold change vs veh, LRRCC1 / RFU, ARID1A / Fold change vs veh, ARID1A / RFU, ZNF146 / Fold change vs veh, ZNF146 / RFU, ZNF330 / Fold change vs veh, ZNF330 / RFU, GPN3 / Fold change vs veh, GPN3 / RFU, C9orf123 / Fold change vs veh, C9orf123 / RFU, N4BP2L2 / Fold change vs veh, N4BP2L2 / RFU, ARFIP1 / Fold change vs veh, ARFIP1 / RFU, FAM179B / Fold change vs veh, FAM179B / RFU, BCL10 / Fold change vs veh, BCL10 / RFU, UHRF1BP1L / Fold change vs veh, UHRF1BP1L / RFU, BET1 / Fold change vs veh, BET1 / RFU, CNOT2 / Fold change vs veh, CNOT2 / RFU, ZNF268 / Fold change vs veh, ZNF268 / Fold change vs veh, ZNF507 / RFU, DGCR2 / Fold change vs veh, DGCR2 / RFU, WDSUB1 / Fold change vs veh, WDSUB1 / Fold change vs veh, HSP90B1 /// MIR3652 / RFU, ADSS / Fold change vs veh, ADSS / RFU, GK / Fold change vs veh, GK / RFU, ZNF148 / Fold change vs veh, ZNF148 / RFU, TAF9 / Fold change vs veh, TAF9 / RFU, SLC1A5 / Fold change vs veh, SLC1A5 / RFU, SLMO2 / Fold change vs veh, SLMO2 / RFU, ABCC4 / Fold change vs veh, ABCC4 / RFU, LOC101060439 /// RAP1B / Fold change vs veh, LOC101060439 /// RAP1B / RFU, RFX7 / Fold change vs veh, RFX7 / RFU, GTPBP10 / Fold change vs veh, GTPBP10 / RFU, CNEP1R1 / Fold change vs veh, CNEP1R1 / RFU, BIVM-ERCC5 /// ERCC5 / Fold change vs veh, BIVM-ERCC5 /// ERCC5 / RFU, ILF3 / Fold change vs veh, ILF3 / RFU 11762660_at / Fold change /veh 11762660_at / RFU VCAN (11757783_s_at) / Fold change /veh VCAN (11757783_s_at) / RFU DDX43 (11728927_at) / Fold change /veh DDX43 (11728927_at) / RFU KRT8 (11758188_x_at) / Fold change /veh KRT8 (11758188_x_at) / RFU NKD1 (11759106_at) / Fold change /veh NKD1 (11759106_at) / RFU SRD5A1 (11742802_a_at) / Fold change /veh SRD5A1 (11742802_a_at) / RFU TPSAB1 /// TPSB2 (11721975_s_at) / Fold change /veh TPSAB1 /// TPSB2 (11721975_s_at) / RFU GSTM3 (11746129_a_at) / Fold change /veh GSTM3 (11746129_a_at) / RFU IL23R (11737362_x_at) / Fold change /veh IL23R (11737362_x_at) / RFU TMEM51 (11727254_a_at) / Fold change /veh TMEM51 (11727254_a_at) / RFU PIWIL2 (11732686_x_at) / Fold change /veh PIWIL2 (11732686_x_at) / RFU ORM1 (11744905_x_at) / Fold change /veh ORM1 (11744905_x_at) / RFU CCDC152 (11743942_at) / Fold change /veh CCDC152 (11743942_at) / RFU ECM1 (11717891_a_at) / Fold change /veh ECM1 (11717891_a_at) / RFU IL23R (11748794_a_at) / Fold change /veh IL23R (11748794_a_at) / RFU TNFAIP8L3 (11732012_x_at) / Fold change /veh TNFAIP8L3 (11732012_x_at) / RFU MBOAT4 (11741988_at) / Fold change /veh MBOAT4 (11741988_at) / RFU 11764193_at / Fold change /veh 11764193_at / RFU TMEM53 (11763286_at) / Fold change /veh TMEM53 (11763286_at) / RFU MAGEB2 (11727129_at) / Fold change /veh MAGEB2 (11727129_at) / RFU TMEM200A (11744735_a_at) / Fold change /veh TMEM200A (11744735_a_at) / RFU CCDC152 (11751479_a_at) / Fold change /veh CCDC152 (11751479_a_at) / RFU FAM211A (11726209_a_at) / Fold change /veh FAM211A (11726209_a_at) / RFU RGS16 (11746705_a_at) / Fold change /veh RGS16 (11746705_a_at) / RFU VCAN (11755009_s_at) / Fold change /veh VCAN (11755009_s_at) / RFU RHOB (11743442_s_at) / Fold change /veh RHOB (11743442_s_at) / RFU RGS16 (11720943_a_at) / Fold change /veh RGS16 (11720943_a_at) / RFU RGS16 (11720944_at) / Fold change /veh RGS16 (11720944_at) / RFU, VPS4B / Fold change vs veh, VPS4B / RFU, CREB1 / Fold change vs veh, CREB1 / RFU, DNAJC13 / Fold change vs veh, DNAJC13 / RFU, GNAQ / Fold change vs veh, GNAQ / RFU, CDK5R1 / Fold change vs veh, CDK5R1 / RFU, ZRANB3 / Fold change vs veh, ZRANB3 / RFU, CUL4A / Fold change vs veh, CUL4A / RFU, CCNY / Fold change vs veh, CCNY / RFU, UFL1 / Fold change vs veh, UFL1 / RFU, COG3 / Fold change vs veh, COG3 / RFU, DIAPH2 / Fold change vs veh, DIAPH2 / RFU, SKA2 / Fold change vs veh, SKA2 / RFU, AFF3 / Fold change vs veh, AFF3 / RFU, LMF1 / Fold change vs veh, LMF1 / RFU, IPO11 / Fold change vs veh, IPO11 / RFU, DFFB / Fold change vs veh, DFFB / RFU, FOXP1 / Fold change vs veh, FOXP1 / RFU, CARD8 / Fold change vs veh, CARD8 / RFU, STRN3 / Fold change vs veh, STRN3 / RFU, ADK / Fold change vs veh, ADK / RFU, RASSF2 / Fold change vs veh, RASSF2 / RFU, WIPF1 / Fold change vs veh, WIPF1 / RFU, LARP1B / Fold change vs veh, LARP1B / RFU, RASA1 / Fold change vs veh, RASA1 / RFU, RB1 / Fold change vs veh, RB1 / RFU, PPFIA1 / Fold change vs veh, PPFIA1 / RFU, MAT2A / Fold change vs veh, MAT2A / RFU, CCT5 / Fold change vs veh, CCT5 / RFU, WDR92 / Fold change vs veh, WDR92 / RFU, CUX1 / Fold change vs veh, CUX1 / RFU, TTC7A / Fold change vs veh, TTC7A / RFU, TMEM135 / Fold change vs veh, TMEM135 / RFU, DEPTOR / Fold change vs veh, DEPTOR / RFU, CPM / Fold change vs veh, CPM / RFU, DNAJB6 / Fold change vs veh, DNAJB6 / RFU, CACNA2D3 / Fold change vs veh, CACNA2D3 / RFU, DTX4 / Fold change vs veh, DTX4 / RFU, TFCP2 / Fold change vs veh, TFCP2 / RFU, GMCL1 /// GMCL1P1 / Fold change vs veh, GMCL1 /// GMCL1P1 / RFU, AEBP2 / Fold change vs veh, AEBP2 / RFU, SNHG1 /// SNORD22 /// SNORD25 /// SNORD26 /// SNORD27 /// SNORD28 /// SNORD29 /// SNORD31 / Fold change vs veh, SNHG1 /// SNORD22 /// SNORD25 /// SNORD26 /// SNORD27 /// SNORD28 /// SNORD29 /// SNORD31 / Fold change (Aza/veh), C12orf56 (ProbeSet 11735607_a_at) / Fold change (ACY-1035/veh), C12orf56 (ProbeSet 11735607_a_at) / Fold change (Aza/veh), FGFR1OP (ProbeSet 11751329_s_at) / Fold change (ACY-1035/veh), FGFR1OP (ProbeSet 11751329_s_at) / Fold change (Aza/veh), VPS36 (ProbeSet 11739960_a_at) / Fold change (ACY-1035/veh), VPS36 (ProbeSet 11739960_a_at) / RFU SYPL1 (11715823_x_at) / Fold change /veh SYPL1 (11715823_x_at) / RFU IGFBP7 (11715501_s_at) / Fold change /veh IGFBP7 (11715501_s_at) / RFU REEP3 (11722064_at) / Fold change /veh REEP3 (11722064_at) / RFU IGLL1 (11728026_x_at) / Fold change /veh IGLL1 (11728026_x_at): dose or concentration left out as unconfirmed
# Details: ProbeSet 11748335_a_at; LIST B
structure (smiles),measurement,value
Nc1ccc(-c2cccs2)cc1NC(=O)c1ccc2c(c1)cc(C1CC1)n2CCN1CCOCC1 [ACY-1035],"Fold change vs veh, SLMO2",0.88
